“Also recorded” adds a separate entry of the source.
How the values were obtained:
recombinant human PCSK9 = recombinant human PCSK9 (Homo sapiens, UniProt Q8NBP7); test: UV spectrometry of PCSK9-Q3G interaction; type: binding; conditions: 5 μM PCSK9 with equimolar Q3G in PBS, 5-min incubation
Method: The data discussed herein indicate that chronic exposure of Huh7 cells to Q3G reduces PCSK9 accumulation in the culture medium by delaying its transit through the secretory pathway. The delay appears not to be caused by impaired proteolytic processing of its precursor. Quercetin is known to bind, covalently in some cases, to selected cellular proteins. […] Purified recombinant PCSK9 (5μM) was mixed with or without equimolar amount of Q3G in phosphate-buffered saline. After a 5-min incubation, the UV spectrum of the mix was taken. […] It is believed that such a binding may alter PCSK9 conformation and/or retard its navigation through the secretory pathway, and, ultimately, diminish its LDL-degrading activity.

PCSK9 = test: ELISA for PCSK9 secreted into medium by MIN6 β-cells; type: cell-based, mouse; conditions: MIN6, 24 h, different concentrations of Q3G
Method: FIG. 15 a graph illustrating the effect of exposure to Q3G on PCSK9 secretion in MIN6 β-cells. MIN6 cells were incubated for 24 h in the presence of the specified concentration of Q3G. Media were collected and assayed by ELISA for PCSK9 content.
(§1) Mouse insulinoma MIN6 cells were cultured in a 5% CO2-95% air atmosphere at 37° C. in DMEM medium containing 10% heat-inactivated fetal bovine serum, 1 mM Na-pyruvate, 2 mM L-glutamine, 25 mM D-glucose, and 28 μM β-mercaptoethanol. Q3G at a specific final concentration was supplemented to the culture medium and incubation was conducted for a selected length of time. Media were collected, spun at 600 g to sediment suspended cells, supplemented with 0.5 volumes of 3×RIPA-PIC (1×: 50 mM Tris-HCl, pH 8, 150 mM NaCl, 1% NP-40, 0.5% Na-deoxycholate and 0.1% SDS and PIC). Cells were lysed in 1×RIPA-PIC for immuno-blotting, or in RNA extraction buffer for qRT-PCR.
The assays for PCSK9 and insulin were conducted as prescribed by kit manufacturers, using a Thermo Scientific plate reader. For example, PCSK9 levels in conditioned media were measured using the human PCSK9 ELISA kit from Circulex, as specified the manufacturer. […] After 15 min, the reaction was stopped with […] and the absorbance of the reaction mixtures measured by spectrophotometry at 450 nm. […]

proPCSK9 = test: Immunoblotting for PCSK9/proPCSK9 in MIN6 β-cells; type: cell-based, mouse; conditions: MIN6, 24 h, 16 μM Q3G versus untreated
Method: (§2) The corresponding photographs of the immunoblotting results are also shown. MIN6 cells were incubated for 24 h in the presence of 16 μM Q3G. Cell lysates were analyzed by semi-quantitative immunoblotting using different antibodies successively.
as §1
(§3) Cell lysates were fractionated by SDS-PAGE and electrophoretically transferred onto a polyvinylidene fluoride membrane. […] The signal was captured on X-ray film and immunoreactive bands analyzed by densitometry on a Syngene's ChemiGenius^2XE Bio Imaging System (Cambridge, Mass.) within the dynamic range of the instrument. […]

ABCG1 = test: Immunoblotting for ABCG1 in MIN6 β-cells; type: cell-based, mouse; conditions: MIN6, Q3G-treated
Method: as §2, §1, §3

MIN6 β-cells = test: GSIS assay (glucose-stimulated insulin secretion, insulin ELISA); type: cell-based, mouse; conditions: MIN6, stimulation with 18 mM glucose, 30 min
Method: The assays for PCSK9 and insulin were conducted as prescribed by kit manufacturers, using a Thermo Scientific plate reader. For example, PCSK9 levels in conditioned media were measured using the human PCSK9 ELISA kit from Circulex, as specified the manufacturer. The assay was a sandwich immunoassay using two antibodies (A and B) recognizing different PCSK9 epitopes. Briefly, aliquot of diluted media were overlaid on wells coated with anti-PCSK9 antibody A. After 1-h incubation, the wells were washed, overlaid with a solution of HRP-conjugated anti-PCSK9 antibody B, and incubated for 1 h. They were washed again, and overlaid with a solution of tetra-methylbenzidine as a chromogenic substrate for HRP. After 15 min, the reaction was stopped with […] and the absorbance of the reaction mixtures measured by spectrophotometry at 450 nm. All the steps were performed at room temperature. Standards consisted of recombinant human PCSK9.
Cells were seeded and grown to 80% confluence. Prior to GSIS assay, fresh medium containing 3 mM Glucose and 10% FBS medium (low-glucose medium or LGM) without or with Q3G was substituted and incubation resumed for 6 h to adapt the cells to low glucose. Fresh LGM without or with Q3G was substituted and supplemented or not with glucose to the final concentration of 18 mM. […]

Sequence of recombinant human PCSK9 (Q8NBP7 153-692): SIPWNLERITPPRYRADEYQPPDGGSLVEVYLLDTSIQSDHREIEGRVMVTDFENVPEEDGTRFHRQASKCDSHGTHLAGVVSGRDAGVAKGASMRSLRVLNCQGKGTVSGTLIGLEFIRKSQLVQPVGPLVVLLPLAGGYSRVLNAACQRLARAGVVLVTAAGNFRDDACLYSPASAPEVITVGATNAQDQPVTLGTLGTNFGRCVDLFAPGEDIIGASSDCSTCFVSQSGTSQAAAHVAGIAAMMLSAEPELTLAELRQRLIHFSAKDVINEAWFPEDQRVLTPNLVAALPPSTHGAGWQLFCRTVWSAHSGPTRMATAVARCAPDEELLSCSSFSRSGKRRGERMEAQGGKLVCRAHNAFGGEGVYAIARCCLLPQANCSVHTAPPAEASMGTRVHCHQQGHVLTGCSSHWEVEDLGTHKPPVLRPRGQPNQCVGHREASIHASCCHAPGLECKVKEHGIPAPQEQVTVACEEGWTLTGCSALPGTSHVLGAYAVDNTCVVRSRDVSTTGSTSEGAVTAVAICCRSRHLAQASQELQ

O=c1c(O[C@@H]2O[C@H](CO)[C@@H](O)[C@H](O)[C@H]2O)c(-c2ccc(O)c(O)c2)oc2cc(O)cc(O)c12 [Q3G, quercetin-3-O-β-D-glucoside]
interaction with PCSK9 (changes of optical density and spectral profile) (recombinant human PCSK9): suggest interaction
PCSK9 in the medium (secretion) (PCSK9): paralleled that of the transcript; also recorded: stimulates
intracellular content of proPCSK9 (proPCSK9): higher
relative amount of ABCG1 protein compared with mRNA (ABCG1): in concordance with the relative amounts of mRNA
glucose-stimulated insulin secretion, treated versus untreated cells (MIN6 β-cells): comparable; also recorded: without affecting
